According to patent publication US8471005B2 (Cephalon, Inc., priority 2008, dated 2013):
Where two headings read alike, the source gives them in different places.

Columns and labels:
ALK = molecular target: T1, ALK (Homo sapiens, UniProt Q9UM73); assay: ALK Kinase Assay (ELISA/TRF, PLC-γ substrate); type: biochemical; details: read-out: ALK Potency
T1 construct: host or cells: baculovirus expression system
How it was run: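 Wells were coated with 10 μg/mL phospholipase C-γ substrate in TBS, and the reaction was started by adding 30 ng/ml ALK enzyme and run at 37° C for 15 minutes. Phosphorylated product was detected with Eu-N1-labeled PT66 antibody, and IC50 values came from sigmoidal variable-slope fits of percent inhibition against log concentration.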

JAK2 = molecular target: T2, JAK2 (Homo sapiens, UniProt O60674); assay: Recombinant Human JAK2 Kinase Assay (TRF); type: biochemical; details: read-out: JAK2 Potency
T2 construct: host or cells: baculovirus expression system
T2 sequence (O60674 whole entry): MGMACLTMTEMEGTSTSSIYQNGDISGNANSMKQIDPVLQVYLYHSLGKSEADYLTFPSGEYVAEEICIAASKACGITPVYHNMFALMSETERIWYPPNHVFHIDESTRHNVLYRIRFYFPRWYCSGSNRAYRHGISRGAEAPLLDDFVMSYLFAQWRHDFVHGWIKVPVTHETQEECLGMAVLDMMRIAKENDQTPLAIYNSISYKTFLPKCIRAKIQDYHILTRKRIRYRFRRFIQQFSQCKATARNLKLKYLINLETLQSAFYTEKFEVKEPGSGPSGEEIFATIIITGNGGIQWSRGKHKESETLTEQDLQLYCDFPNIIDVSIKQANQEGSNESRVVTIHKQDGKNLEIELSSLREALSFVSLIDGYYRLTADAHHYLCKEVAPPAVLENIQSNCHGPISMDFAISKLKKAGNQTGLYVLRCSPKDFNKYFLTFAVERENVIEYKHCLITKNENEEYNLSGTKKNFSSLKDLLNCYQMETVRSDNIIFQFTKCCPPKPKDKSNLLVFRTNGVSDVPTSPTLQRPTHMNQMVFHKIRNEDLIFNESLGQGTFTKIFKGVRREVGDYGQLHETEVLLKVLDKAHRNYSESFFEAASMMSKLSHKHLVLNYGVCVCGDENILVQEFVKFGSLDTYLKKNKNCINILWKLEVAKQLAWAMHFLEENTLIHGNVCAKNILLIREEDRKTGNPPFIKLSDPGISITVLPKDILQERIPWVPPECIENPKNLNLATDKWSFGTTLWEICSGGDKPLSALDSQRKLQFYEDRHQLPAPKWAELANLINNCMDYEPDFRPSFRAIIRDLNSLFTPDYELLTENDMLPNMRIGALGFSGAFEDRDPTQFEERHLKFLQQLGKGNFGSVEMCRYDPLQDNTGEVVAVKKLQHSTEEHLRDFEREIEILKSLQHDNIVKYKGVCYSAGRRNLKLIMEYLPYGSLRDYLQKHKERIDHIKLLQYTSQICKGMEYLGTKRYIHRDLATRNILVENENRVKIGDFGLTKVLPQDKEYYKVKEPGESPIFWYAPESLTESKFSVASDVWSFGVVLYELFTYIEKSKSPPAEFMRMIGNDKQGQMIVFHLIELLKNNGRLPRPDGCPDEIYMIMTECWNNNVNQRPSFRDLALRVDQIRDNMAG
How it was run: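 Europium-labelled PY100 antibody reported tyrosine phosphorylation of a Neutravidin-captured biotinyl 15-mer peptide by JAK2 (baculovirus-expressed, 15 ng/ml). Conditions: 20 mM HEPES pH 7.2, 0.2 μM ATP, 1 mM MnCl2, 0.1% BSA, DMSO 2.5% final, 20 min at room temperature.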

[1] = ALK kinase inhibition, 1 μM ATP
[2] = JAK2 kinase inhibition, 0.2 μM ATP

T1 sequence (Q9UM73 19-1620): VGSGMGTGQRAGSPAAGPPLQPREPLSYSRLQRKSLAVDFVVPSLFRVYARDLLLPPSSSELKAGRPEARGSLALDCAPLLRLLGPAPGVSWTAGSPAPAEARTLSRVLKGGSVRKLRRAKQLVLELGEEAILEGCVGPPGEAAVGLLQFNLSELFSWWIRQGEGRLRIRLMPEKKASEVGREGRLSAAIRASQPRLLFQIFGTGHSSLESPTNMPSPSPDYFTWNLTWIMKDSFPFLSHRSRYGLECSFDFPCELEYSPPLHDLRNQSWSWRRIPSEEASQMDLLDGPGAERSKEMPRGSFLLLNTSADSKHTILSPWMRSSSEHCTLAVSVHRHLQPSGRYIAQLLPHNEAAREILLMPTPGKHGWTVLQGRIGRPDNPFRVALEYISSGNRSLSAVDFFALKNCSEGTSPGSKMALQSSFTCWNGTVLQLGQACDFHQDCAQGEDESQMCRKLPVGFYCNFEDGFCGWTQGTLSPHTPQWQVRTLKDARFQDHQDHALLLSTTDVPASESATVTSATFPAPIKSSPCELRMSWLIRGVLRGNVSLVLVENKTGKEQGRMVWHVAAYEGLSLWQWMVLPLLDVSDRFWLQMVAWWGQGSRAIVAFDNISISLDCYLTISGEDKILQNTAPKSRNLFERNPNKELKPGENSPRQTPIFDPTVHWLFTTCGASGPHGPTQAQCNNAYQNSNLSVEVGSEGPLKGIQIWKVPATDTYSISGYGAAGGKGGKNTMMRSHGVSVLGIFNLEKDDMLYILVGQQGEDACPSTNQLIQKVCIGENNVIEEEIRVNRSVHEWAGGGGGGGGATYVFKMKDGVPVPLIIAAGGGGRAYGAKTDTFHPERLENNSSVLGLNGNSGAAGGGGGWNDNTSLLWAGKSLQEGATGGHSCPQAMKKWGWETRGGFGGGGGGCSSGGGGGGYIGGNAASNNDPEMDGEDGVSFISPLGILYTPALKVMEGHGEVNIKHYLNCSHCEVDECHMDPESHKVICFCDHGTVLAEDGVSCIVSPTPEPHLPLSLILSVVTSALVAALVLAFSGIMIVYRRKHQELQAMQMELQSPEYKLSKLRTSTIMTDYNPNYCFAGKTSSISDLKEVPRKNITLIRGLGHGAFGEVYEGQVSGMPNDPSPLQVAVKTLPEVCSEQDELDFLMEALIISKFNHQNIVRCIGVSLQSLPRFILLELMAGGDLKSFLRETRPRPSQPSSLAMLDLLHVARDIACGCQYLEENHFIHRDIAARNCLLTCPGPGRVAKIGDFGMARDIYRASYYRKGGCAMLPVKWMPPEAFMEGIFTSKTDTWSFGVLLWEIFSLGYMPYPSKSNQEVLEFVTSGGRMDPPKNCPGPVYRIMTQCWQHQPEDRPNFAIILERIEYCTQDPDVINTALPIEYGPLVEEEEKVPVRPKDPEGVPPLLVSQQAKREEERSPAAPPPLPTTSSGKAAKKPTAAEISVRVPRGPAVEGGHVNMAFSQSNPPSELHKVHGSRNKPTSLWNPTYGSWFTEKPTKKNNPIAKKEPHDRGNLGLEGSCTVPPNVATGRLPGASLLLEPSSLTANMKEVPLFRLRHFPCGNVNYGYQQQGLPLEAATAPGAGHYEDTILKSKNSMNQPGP

Q: `COc1ccc(-c2ccc3cnc(Nc4ccc(C5CCN(CC(N)=O)CC5)cc4OC)nn23)c(N(C)S(C)(=O)=O)c1` [Example 1273, 2-[4-(4-{7-[2-(Methanesulfonyl-methyl-amino)-4-methoxy-phenyl]-pyrrolo[2,1-f][1,2,4]triazin-2-ylamino}-3-methoxy-phenyl)-piperidin-1-yl]-acetamide] was tested. Which IC50 (ALK; [1]) did it give?
A: < 100 nM

Q: What about the IC50 (JAK2; [2]) of the same compound?
A: 1000 to 10000 nM

Q: Which IC50 (ALK; ALK Kinase Inhibition) does the source give for `CC(=O)Nc1cccc(Nc2ncc3ccc(-c4cnn(C)c4)n3n2)c1` [Example 1378, N-{3-[7-(1-Methyl-1H-pyrazol-4-yl)-pyrrolo[2,1-f][1,2,4]triazin-2-ylamino]-phenyl}-acetamide] here?
A: 1000 to 10000 nM

Q: And the IC50 (JAK2; JAK2 Kinase Inhibition)?
A: < 100 nM

Q: With `COc1cc(N2CCC(C(=O)N3CCN(C)CC3)CC2)ccc1Nc1ncc2ccc(-c3ccccc3OC)n2n1` [Example 458, (1-{3-Methoxy-4-[7-(2-methoxy-phenyl)-pyrrolo[2,1-f][1,2,4]triazin-2-ylamino]-phenyl}-piperidin-4-yl)-(4-methyl-piperazin-1-yl)-methanone] as the compound, how does the IC50 (ALK; ALK Kinase Inhibition) read?
A: < 100 nM

Q: What about the IC50 (JAK2; JAK2 Kinase Inhibition) of the same compound?
A: 100 to 1000 nM

Q: Which IC50 (ALK; ALK Kinase Inhibition) does the source give for `COc1ccc(Nc2ncc3ccc(-c4cc(Cl)ccc4OC)n3n2)cc1` [Example 153, [7-(5-Chloro-2-methoxy-phenyl)-pyrrolo[2,1-f][1,2,4]triazin-2-yl]-(4-methoxy-phenyl)-amine] here?
A: > 10000 nM

Q: What about the IC50 (JAK2; JAK2 Kinase Inhibition) of the same compound?
A: < 100 nM

Q: How did the IC50 (ALK; ALK Kinase Inhibition) turn out when `NC(=O)c1ccccc1-c1ccc2cnc(Nc3ccc(N4CCOCC4)cc3)nn12` [Example 36, 2-[2-(4-Morpholin-4-yl-phenylamino)-pyrrolo[2,1-f][1,2,4]triazin-7-yl]-benzamide] was run?
A: 1000 to 10000 nM

Q: And the IC50 (JAK2; JAK2 Kinase Inhibition)?
A: < 100 nM

Q: What does the source list for `CN1CCN(C)C(c2cccc(Nc3ncc4ccc(-c5cccc(S(=O)(=O)N6CCOCC6)c5)n4n3)c2)C1=O` (stereo not shown) [Example 1078, 1,4-Dimethyl-3-(3-{7-[3-(morpholine-4-sulfonyl)-phenyl]-pyrrolo[2,1-f][1,2,4]triazin-2-ylamino}-phenyl)-piperazin-2-one]?
A: IC50 (ALK; [1]): > 10000 nM; IC50 (JAK2; [2]): < 100 nM

Q: With `CN(c1ccccc1-c1ccc2cnc(Nc3ccc(C4CN(CC(N)=O)C4)cc3)nn12)S(C)(=O)=O` [Example 586, 2-[3-(4-{7-[2-(Methanesulfonyl-methyl-amino)-phenyl]-pyrrolo[2,1-f][1,2,4]triazin-2-ylamino}-phenyl)-azetidin-1-yl]-acetamide] as the compound, how does the IC50 (ALK; [1]) read?
A: < 100 nM

Q: What about the IC50 (JAK2; [2]) of the same compound?
A: < 100 nM

Q: Which results are given for `COc1ccc(Cl)cc1-c1ccc2cnc(Nc3ccc(N4CCOCC4)c(F)c3)nn12` [Example 188, [7-(5-Chloro-2-methoxy-phenyl)-pyrrolo[2,1-f][1,2,4]triazin-2-yl]-(3-fluoro-4-morpholin-4-yl-phenyl)-amine]?
A: IC50 (ALK; ALK Kinase Inhibition): 1000 to 10000 nM; IC50 (JAK2; JAK2 Kinase Inhibition): < 100 nM

Q: What does the source list for `O=S(=O)(Nc1cccc(-c2ccc3cnc(Nc4ccc(N5CCOCC5)cc4)nn23)c1)C1CC1` [Example 414, Cyclopropanesulfonic acid {3-[2-(4-morpholin-4-yl-phenylamino)-pyrrolo[2,1-f][1,2,4]triazin-7-yl]-phenyl}-amide]?
A: IC50 (ALK; ALK Kinase Inhibition): 100 to 1000 nM; IC50 (JAK2; JAK2 Kinase Inhibition): < 100 nM

Q: How did the IC50 (ALK; [1]) turn out when `COc1cc(Nc2ncc3ccc(-c4ccccc4N(C)S(C)(=O)=O)n3n2)ccc1C1CCN(C)CC1` [Example 913, N-(2-{2-[3-Methoxy-4-(1-methyl-piperidin-4-yl)-phenylamino]-pyrrolo[2,1-f][1,2,4]triazin-7-yl}-phenyl)-N-methyl-methanesulfonamide] was run?
A: < 100 nM

Q: And the IC50 (JAK2; [2])?
A: < 100 nM

Q: `CN1CCN(c2ccc(Nc3ncc4ccc(-c5ccccc5O)n4n3)cc2)CC1` [Example 1154, 2-{2-[4-(4-Methyl-piperazin-1-yl)-phenylamino]-pyrrolo[2,1-f][1,2,4]triazin-7-yl}-phenol] was tested. Which IC50 (ALK; [1]) did it give?
A: < 100 nM

Q: What about the IC50 (JAK2; [2]) of the same compound?
A: < 100 nM

Q: Which results are given for `CC(=O)Nc1cccc(Nc2ncc3ccc(-c4cccc(S(=O)(=O)N5CC[C@H](O)C5)c4)n3n2)c1` [Example 884, N-(3-{7-[3-((S)-3-Hydroxy-pyrrolidine-1-sulfonyl)-phenyl]-pyrrolo[2,1-f][1,2,4]triazin-2-ylamino}-phenyl)-acetamide]?
A: IC50 (ALK; [1]): 1000 to 10000 nM; IC50 (JAK2; [2]): < 100 nM

Q: How did the IC50 (ALK; [1]) turn out when `COc1cc2c(cc1Nc1ncc3ccc(-c4ccccc4OC)n3n1)CN(C(C)C)C2` [Example 877, (2-Isopropyl-6-methoxy-2,3-dihydro-1H-isoindol-5-yl)-[7-(2-methoxy-phenyl)-pyrrolo[2,1-f][1,2,4]triazin-2-yl]-amine] was run?
A: < 100 nM

Q: And the IC50 (JAK2; [2])?
A: < 100 nM

Q: How did the IC50 (ALK; [1]) turn out when `CN(c1ccccc1-c1ccc2cnc(Nc3ccc4cn[nH]c4c3)nn12)S(C)(=O)=O` [Example 1337, N-{2-[2-(1H-Indazol-6-ylamino)-pyrrolo[2,1-f][1,2,4]triazin-7-yl]-phenyl}-N-methyl-methanesulfonamide] was run?
A: 100 to 1000 nM

Q: And the IC50 (JAK2; [2])?
A: < 100 nM

Q: `COc1cc(C2CCN(CC(=O)N(C)C)CC2)ccc1Nc1ncc2ccc(-c3ccccc3OC)n2n1` [Example 811, 2-(4-{3-Methoxy-4-[7-(2-methoxy-phenyl)-pyrrolo[2,1-f][1,2,4]triazin-2-ylamino]-phenyl}-piperidin-1-yl)-N,N-dimethyl-acetamide] was tested. Which IC50 (ALK; [1]) did it give?
A: < 100 nM

Q: And the IC50 (JAK2; [2])?
A: 100 to 1000 nM

Q: For `COc1ccc(-c2ccc3cnc(Nc4ccc(C5CCN(CC(N)=O)CC5)cc4)nn23)c(OC)n1` [Example 682, 2-(4-{4-[7-(2,6-Dimethoxy-pyridin-3-yl)-pyrrolo[2,1-f][1,2,4]triazin-2-ylamino]-phenyl}-piperidin-1-yl)-acetamide], which IC50 (ALK; [1]) is on record?
A: < 100 nM

Q: And the IC50 (JAK2; [2])?
A: < 100 nM

Q: With `CON=C1CCC(c2ccc(Nc3ncc4ccc(-c5cccc(S(=O)(=O)NC(C)(C)C)c5)n4n3)cc2)CC1` (stereo not shown) [Example 571, N-tert-Butyl-3-{2-[4-(4-methoxyimino-cyclohexyl)-phenylamino]-pyrrolo[2,1-f][1,2,4]triazin-7-yl}-benzenesulfonamide] as the compound, how does the IC50 (ALK; [1]) read?
A: > 10000 nM

Q: And the IC50 (JAK2; [2])?
A: < 100 nM

Q: Which results are given for `COc1cc(C2CCN(C)CC2)ccc1Nc1ncc2ccc(-c3cccc(S(=O)(=O)NC4CC4)c3)n2n1` [Example 696]?
A: IC50 (ALK; [1]): < 100 nM; IC50 (JAK2; [2]): 100 to 1000 nM

Q: For `CN(c1ccccc1-c1ccc2cnc(Nc3ccc(C4CCN(CC(N)=O)CC4)cc3)nn12)S(C)(=O)=O` [Example 1408, 2-[4-(4-{7-[2-(Methanesulfonyl-methyl-amino)-phenyl]-pyrrolo[2,1-f][1,2,4]triazin-2-ylamino}-phenyl)-piperidin-1-yl]-acetamide], which IC50 (ALK; ALK Kinase Inhibition) is on record?
A: < 100 nM

Q: What about the IC50 (JAK2; JAK2 Kinase Inhibition) of the same compound?
A: < 100 nM

Q: Which IC50 (ALK; [1]) does the source give for `CCN1CCOC(c2ccc(Nc3ncc4ccc(-c5ccccc5N(C)S(C)(=O)=O)n4n3)cc2)C1` (stereo not shown) [Example 995, N-(2-{2-[4-(4-Ethyl-morpholin-2-yl)-phenylamino]-pyrrolo[2,1-f][1,2,4]triazin-7-yl}-phenyl)-N-methyl-methanesulfonamide] here?
A: < 100 nM

Q: What about the IC50 (JAK2; [2]) of the same compound?
A: < 100 nM

Q: How did the IC50 (ALK; [1]) turn out when `CN1CCN(c2ccc(Nc3ncc4ccc(-c5cccc(S(=O)(=O)NC(C)(C)C)c5)n4n3)cn2)CC1` [Example 1127, N-tert-Butyl-3-{2-[6-(4-methyl-piperazin-1-yl)-pyridin-3-ylamino]-pyrrolo[2,1-f][1,2,4]triazin-7-yl}-benzenesulfonamide] was run?
A: 100 to 1000 nM

Q: What about the IC50 (JAK2; [2]) of the same compound?
A: < 100 nM

Q: How did the IC50 (ALK; ALK Kinase Inhibition) turn out when `CS(=O)(=O)Nc1cccc(-c2ccc3cnc(Nc4ccc(N5CCOCC5)cc4F)nn23)c1` [Example 371, N-{3-[2-(2-Fluoro-4-morpholin-4-yl-phenylamino)-pyrrolo[2,1-f][1,2,4]triazin-7-yl]-phenyl}-methanesulfonamide] was run?
A: 1000 to 10000 nM

Q: What about the IC50 (JAK2; JAK2 Kinase Inhibition) of the same compound?
A: < 100 nM

Q: `CC(C)(C)NS(=O)(=O)c1cccc(-c2ccc3cnc(Nc4ccc5c(cnn5CCN5CCOCC5)c4)nn23)c1` [Example 1323, N-tert-Butyl-3-{2-[1-(2-morpholin-4-yl-ethyl)-1H-indazol-5-ylamino]-pyrrolo[2,1-f][1,2,4]triazin-7-yl}-benzenesulfonamide] was tested. Which IC50 (ALK; [1]) did it give?
A: 100 to 1000 nM

Q: What about the IC50 (JAK2; [2]) of the same compound?
A: < 100 nM

Q: How did the IC50 (ALK; ALK Kinase Inhibition) turn out when `COc1ccccc1-c1ccc2cnc(C#N)nn12` [Example 1494, 7-(2-Methoxy-phenyl)-pyrrolo[2,1-f][1,2,4]triazine-2-carbonitrile] was run?
A: > 10000 nM

Q: And the IC50 (JAK2; JAK2 Kinase Inhibition)?
A: > 10000 nM

Q: Which IC50 (ALK; ALK Kinase Inhibition) does the source give for `COc1cc(N2CCC(N3CCC(F)(F)CC3)CC2)ccc1Nc1ncc2ccc(-c3ccccc3N(C)S(C)(=O)=O)n2n1` [Example 1474, N-(2-{2-[4-(4,4-Difluoro-[1,4′]bipiperidinyl-1′-yl)-2-methoxy-phenylamino]-pyrrolo[2,1-f][1,2,4]triazin-7-yl}-phenyl)-N-methyl-methanesulfonamide] here?
A: < 100 nM

Q: What about the IC50 (JAK2; JAK2 Kinase Inhibition) of the same compound?
A: 100 to 1000 nM

Q: Which results are given for `Cc1ccncc1-c1ccc2cnc(Nc3ccc(N4CCN(C)CC4)cc3)nn12` [Example 1039, [4-(4-Methyl-piperazin-1-yl)-phenyl]-[7-(4-methyl-pyridin-3-yl)-pyrrolo[2,1-f][1,2,4]triazin-2-yl]-amine]?
A: IC50 (ALK; [1]): 100 to 1000 nM; IC50 (JAK2; [2]): < 100 nM

Q: Which results are given for `CS(=O)(=O)CCNC(=O)c1ccc(-c2ccc3cnc(Nc4ccc(N5CCOCC5)cc4)nn23)cc1` [Example 117, N-(2-Methanesulfonyl-ethyl)-4-[2-(4-morpholin-4-yl-phenylamino)-pyrrolo[2,1-f][1,2,4]triazin-7-yl]-benzamide]?
A: IC50 (ALK; ALK Kinase Inhibition): 1000 to 10000 nM; IC50 (JAK2; JAK2 Kinase Inhibition): < 100 nM

Q: For `CC1(C)C(=O)Nc2ccc(Nc3ncc4ccc(-c5ccccc5N5CCCS5(=O)=O)n4n3)cc21` [Example 1556, 5-({7-[2-(1,1-Dioxido-1,2-thiazolidin-2-yl)phenyl]pyrrolo[2,1-f][1,2,4]triazin-2-yl}amino)-3,3-dimethyl-1,3-dihydro-2H-indol-2-one], which IC50 (ALK; ALK Kinase Inhibition) is on record?
A: < 100 nM

Q: And the IC50 (JAK2; JAK2 Kinase Inhibition)?
A: < 100 nM

Q: With `COc1ccccc1-c1ccc2cnc(Nc3ccc4c(c3)CN(CC(N)=O)CC4)nn12` [Example 987, 2-{7-[7-(2-Methoxy-phenyl)-pyrrolo[2,1-f][1,2,4]triazin-2-ylamino]-3,4-dihydro-1H-isoquinolin-2-yl}-acetamide] as the compound, how does the IC50 (ALK; [1]) read?
A: 100 to 1000 nM

Q: What about the IC50 (JAK2; [2]) of the same compound?
A: < 100 nM
